Laboratory results: the supplement of paper PMC11061612

What was measured:
[1] = compound: COc1cc2ncnc(Nc3ccc(F)c(Cl)c3)c2cc1OCCCN1CCOCC1 [Gefitinib]; details: max 10 µM
Procedure, shortened: (§1)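 Cancer cell lines were seeded in 1536-well plates in 7.5 μl DMEM/F12 or RPMI with 10% FBS, held 24 hours at 37°C and 5% CO2, then dosed for 72 hours (final DMSO typically 0.2%). Viability was read by CellTiter-Glo 2.0 luminescence and scaled between blank-well and DMSO-well means. The single-agent IC50 comes from dose responses fitted to a two-parameter logistic curve with a non-linear mixed effects model.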

[2] = compound: C[C@@H](Nc1cc(F)cc(F)c1)c1cc(C(=O)N(C)C)cc2c(=O)cc(N3CCOCC3)oc12 [AZD8186]; details: max 3 µM
Procedure, shortened: as §1

[3] = compound: CC(C)n1c(=O)n(C)c2cnc3cc(F)c(-c4ccc(OCCCN5CCCCC5)nc4)cc3c21 [AZD1390]; details: max 0.3 µM
Procedure, shortened: as §1

[4] = compound: CCN(CCO)CCCOc1ccc2c(Nc3cc(CC(=O)Nc4cccc(F)c4)[nH]n3)ncnc2c1 [AZD2811]; details: max 1 µM
Procedure, shortened: as §1

[5] = compound: CC1=C(C(=CC=C1)Cl)NC(=O)C2=CN=C(S2)NC3=CC(=NC(=N3)C)N4CCN(CC4)CCO [Dasatinib]; details: max 2 µM
Procedure, shortened: as §1

[6] = compound: CC(=O)Nc1cccc(-n2c(=O)n(C3CC3)c(=O)c3c(Nc4ccc(I)cc4F)n(C)c(=O)c(C)c32)c1 [Trametinib]; details: max 1 µM
Procedure, shortened: as §1

[7] = compound: C[C@@H]1COCCN1C2=NC(=NC(=C2)C3(CC3)[S@](=N)(=O)C)C4=C5C=CNC5=NC=C4 [AZD6738]; details: max 10 µM
Procedure, shortened: as §1

[8] = compound: Cn1cnc2c(F)c(Nc3ccc(Br)cc3Cl)c(C(=O)NOCCO)cc21 [Selumetinib]; details: max 10 µM
Procedure, shortened: as §1

[9] = compound: CC1=CN2[C@@H](C1)C=NC3=CC(=C(C=C3C2=O)OC)OCCCCCOC4=C(C=C5C(=C4)N=C[C@@H]6CC(=CN6C5=O)C)OC [SG3199]; details: max 0.001 µM
Procedure, shortened: as §1

[10] = compound: Cc1nc(-c2cn3c(n2)-c2ccc(-c4cnn(C(C)(C)C(N)=O)c4)cc2OCC3)n(C(C)C)n1 [Taselisib]; details: max 10 µM
Procedure, shortened: as §1

[11] = compound: COc1nnc2ccc(N3CCC(c4ccc(OCCN5CCN(C)C(=O)[C@H]5C)cc4)CC3)nn12 [AZD5153]; details: max 1 µM
Procedure, shortened: as §1

[12] = compound: CN(C)CCCOc1ccc(-c2ccc3ncc4c(c3c2)n(C2CCOCC2)c(=O)n4C)cn1 [AZD0156]; details: max 3 µM
Procedure, shortened: as §1

[13] = compound: C[C@@H](c1ccc2nccn2c1)n1nnc2ncc(-c3cnn(C)c3)nc21 [Savolitinib]; details: max 1 µM
Procedure, shortened: as §1

[14] = compound: C[C@@H](Oc1cc(-c2cnn(C3CCNCC3)c2)cnc1N)c1c(Cl)ccc(F)c1Cl [Crizotinib]; details: max 10 µM
Procedure, shortened: as §1

[15] = compound: C1CN(CCC1(C(=O)N[C@@H](CCO)C2=CC=C(C=C2)Cl)N)C3=NC=NC4=C3C=CN4 [Capivasertib]; details: max 10 µM
Procedure, shortened: as §1

[16] = compound: CC(=O)c1c(C)c2cnc(Nc3ccc(N4CCNCC4)cn3)nc2n(C2CCCC2)c1=O [Palbociclib]; details: max 10 µM
Procedure, shortened: as §1

[17] = compound: COc1cccc2c1C(=O)c1c(O)c3c(c(O)c1C2=O)C[C@@](O)(C(=O)CO)C[C@@H]3O[C@H]1C[C@H](N)[C@H](O)[C@H](C)O1 [Doxorubicin]; details: max 1 µM
Procedure, shortened: as §1

[18] = compound: Cc1c2c(nn1C)CSCc1cc(n(C)n1)CSc1cc(c3ccccc3c1)OCCCc1c(C(=O)O)n(C)c3c-2c(Cl)ccc13 [AZD5991]; details: max 1 µM
Procedure, shortened: as §1

[19] = compound: CC1(C)CCC(CN2CCN(c3ccc(C(=O)NS(=O)(=O)c4ccc(NCC5CCOCC5)c([N+](=O)[O-])c4)c(Oc4cnc5[nH]ccc5c4)c3)CC2)=C(c2ccc(Cl)cc2)C1 [Venetoclax]; details: max 1 µM
Procedure, shortened: as §1

[20] = compound: CS(=O)(=O)CCNCc1ccc(-c2ccc3ncnc(Nc4ccc(OCc5cccc(F)c5)c(Cl)c4)c3c2)o1 [Lapatinib]; details: max 10 µM
Procedure, shortened: as §1

[21] = compound: COc1cc(Nc2ncc3c(n2)-c2ccc(Cl)cc2C(c2c(F)cccc2OC)=NC3)ccc1C(=O)O [Alisertib]; details: max 10 µM
Procedure, shortened: as §1

[22] = compound: COc1cccc(OCCCN)c1-c1cc(Nc2cnc(C#N)cn2)n[nH]1 [Prexasertib]; details: max 1 µM
Procedure, shortened: as §1

[23] = compound: O=C(c1cc(Cc2n[nH]c(=O)c3ccccc23)ccc1F)N1CCN(C(=O)C2CC2)CC1 [Olaparib]; details: max 10 µM
Procedure, shortened: as §1

[24] = compound: Cc1cc2ncnn2cc1Nc1ncc2c(n1)n(C1CCOCC1)c(=O)n2C [AZD7648]; details: max 10 µM
Procedure, shortened: as §1

[25] = compound: C=CCn1c(=O)c2cnc(Nc3ccc(N4CCN(C)CC4)cc3)nc2n1-c1cccc(C(C)(C)O)n1 [AZD1775]; details: max 3 µM
Procedure, shortened: as §1

[26] = compound: CCc1c2c(nc3ccc(O)cc13)-c1cc3c(c(=O)n1C2)COC(=O)[C@]3(O)CC [SN-38]; details: max 0.3 µM
Procedure, shortened: as §1

[27] = compound: CN(CC[C@H](CSC1=CC=CC=C1)NC2=C(C=C(C=C2)S(=O)(=O)NC(=O)C3=CC=C(C=C3)N4CCC(CC4)[C@H](C5=CC=CC=C5C6=CC=C(C=C6)Cl)O)S(=O)(=O)C(F)(F)F)CCO [AZD4320]; details: max 1 µM
Procedure, shortened: as §1

Cell Line | IC50, cell viability 72 h [1] [nM] | IC50, cell viability 72 h [2] [nM] | IC50, cell viability 72 h [3] [nM] | IC50, cell viability 72 h [4] [nM] | IC50, cell viability 72 h [5] [nM] | IC50, cell viability 72 h [6] [nM] | IC50, cell viability 72 h [7] [nM] | IC50, cell viability 72 h [8] [nM] | IC50, cell viability 72 h [9] [nM] | IC50, cell viability 72 h [10] [nM] | IC50, cell viability 72 h [11] [nM] | IC50, cell viability 72 h [12] [nM] | IC50, cell viability 72 h [13] [nM] | IC50, cell viability 72 h [14] [nM] | IC50, cell viability 72 h [15] [nM] | IC50, cell viability 72 h [16] [nM] | IC50, cell viability 72 h [17] [nM] | IC50, cell viability 72 h [18] [nM] | IC50, cell viability 72 h [19] [nM] | IC50, cell viability 72 h [20] [nM] | IC50, cell viability 72 h [21] [nM] | IC50, cell viability 72 h [22] [nM] | IC50, cell viability 72 h [23] [nM] | IC50, cell viability 72 h [24] [nM] | IC50, cell viability 72 h [25] [nM] | IC50, cell viability 72 h [26] [nM] | IC50, cell viability 72 h [27] [nM]
COLO-678 (Colorectal Carcinoma) | > 10000 | > 3000 | > 300 | > 1000 | > 2000 | 264 | > 10000 | 3440 | > 1 | > 10000 | > 1000 | > 3000 | > 1000 | > 10000 | > 10000 | > 10000 | > 1000 | > 1000 | > 1000 | > 10000 | > 10000 | > 1000 | > 10000 | > 10000 | > 3000 | > 300 | > 1000
TOV-112D (Ovarian Carcinoma) | > 10000 | > 3000 | > 300 | > 1000 | > 2000 | > 1000 | 6940 | > 10000 | > 1 | > 10000 | 298 | > 3000 | > 1000 | > 10000 | > 10000 | > 10000 | 262 | > 1000 | > 1000 | > 10000 | 4320 | 353 | > 10000 | > 10000 | 1260 | 8.03 | > 1000
CHP-212 (Neuroblastoma) | > 10000 | > 3000 | > 300 | 169 | 59.6 | < 1 | 1830 | 12 | > 1 | 1080 | 59.2 | > 3000 | > 1000 | 2070 | > 10000 | 3360 | 254 | 257 | > 1000 | > 10000 | 64.3 | 51.5 | > 10000 | > 10000 | 221 | 17.5 | > 1000
MFM-223 (Breast Carcinoma) | > 10000 | > 3000 | > 300 | > 1000 | > 2000 | > 1000 | 5200 | > 10000 | > 1 | 1160 | > 1000 | > 3000 | > 1000 | > 10000 | 1620 | > 10000 | > 1000 | > 1000 | > 1000 | > 10000 | 633 | 59.9 | > 10000 | > 10000 | 2300 | > 300 | > 1000
